# Assay results reported in patent publication US12522583B2, “Benzimidazole derivatives and aza-benzimidazole derivatives as Janus kinase 2 inhibitors and uses thereof” (Dana-Farber Cancer Institute, Inc., priority 2018, dated 2026).
# Columns and labels:
# Experiment in all cases: KINOMEscan
# Format in all cases: binding
# Details in all cases: read-out: percent control
# [1] = target: NDR2 (Homo sapiens (Human), UniProt Q9Y2H1)
# Source text: (§1) Example 2. In Vitro Kinase Selectivity Profiling of the Compounds of the Present Disclosure
# [2] = target: IRAK3 (Homo sapiens (Human), UniProt Q9Y616)
# Source text: as §1
# [3] = target: ERN1 (Homo sapiens (Human), UniProt O75460)
# Source text: as §1
# [4] = target: FGR (Homo sapiens (Human), UniProt P09769)
# Source text: as §1
# [5] = target: EGFR(T790M) (Homo sapiens (Human), UniProt P00533, T790M)
# Source text: as §1
# [6] = target: YANK3 (Homo sapiens (Human), UniProt Q86UX6)
# Source text: as §1
# [7] = target: PKAC-alpha (Homo sapiens (Human), UniProt P17612)
# Source text: as §1
# [8] = target: ULK2 (Homo sapiens (Human), UniProt Q8IYT8)
# Source text: as §1
# [9] = target: ZAK (Homo sapiens (Human), UniProt Q9NYL2)
# Source text: as §1
# [10] = target: SGK2 (Homo sapiens (Human), UniProt Q9HBY8)
# Source text: as §1
# [11] = target: PRKR (Homo sapiens (Human), UniProt P19525)
# Source text: as §1
# [12] = target: PRKD1 (Homo sapiens (Human), UniProt Q15139)
# Source text: as §1
# [13] = target: LIMK2 (Homo sapiens (Human), UniProt P53671)
# Source text: as §1
# [14] = target: CSNK1G2 (Homo sapiens (Human), UniProt P78368)
# Source text: as §1
# [15] = target: AURKC (Homo sapiens (Human), UniProt Q9UQB9)
# Source text: as §1
# [16] = target: TTK (Homo sapiens (Human), UniProt P33981)
# Source text: as §1
# [17] = target: TRKB (Homo sapiens (Human), UniProt Q16620)
# Source text: as §1
# [18] = target: STK35 (Homo sapiens (Human), UniProt Q8TDR2)
# Source text: as §1
# [19] = target: TLK1 (Homo sapiens (Human), UniProt Q9UKI8)
# Source text: as §1
# [20] = target: SYK (Homo sapiens (Human), UniProt P43405)
# Source text: as §1
# [21] = target: DYRK1B (Homo sapiens (Human), UniProt Q9Y463)
# Source text: as §1
# [22] = target: PRKG2 (Homo sapiens (Human), UniProt Q13237)
# Source text: as §1
# [23] = target: PRKCQ (Homo sapiens (Human), UniProt Q04759)
# Source text: as §1
# [24] = target: PDGFRB (Homo sapiens (Human), UniProt P09619)
# Source text: as §1
# [25] = target: KIT-autoinhibited (Homo sapiens (Human), UniProt P10721)
# Source text: as §1
# [26] = target: MELK (Homo sapiens (Human), UniProt Q14680)
# Source text: as §1
# [27] = target: CDK9 (Homo sapiens (Human), UniProt P50750)
# Source text: as §1
# [28] = target: FLT3(D835Y) (Homo sapiens (Human), UniProt P36888, D835Y)
# Source text: as §1
# [29] = target: BRK (Homo sapiens (Human), UniProt Q13882)
# Source text: as §1
# [30] = target: MAP4K4 (Homo sapiens (Human), UniProt O95819)
# Source text: as §1
# [31] = target: RSK1(Kin.Dom.1-N-terminal) (Homo sapiens (Human), UniProt Q15418)
# Source text: as §1
# [32] = target: ABL1(T315I)-nonphosphorylated (Homo sapiens (Human), UniProt P00519, T315I)
# Source text: as §1
# [33] = target: FGFR3 (Homo sapiens (Human), UniProt P22607)
# Source text: as §1
# [34] = target: MST2 (Homo sapiens (Human), UniProt Q13188)
# Source text: as §1
# [35] = target: CDK11 (Homo sapiens (Human), UniProt Q9BWU1)
# Source text: as §1
# [36] = target: MAP4K3 (Homo sapiens (Human), UniProt Q8IVH8)
# Source text: as §1
# [37] = target: MEK3 (Homo sapiens (Human), UniProt P46734)
# Source text: as §1
# [38] = target: NEK10 (Homo sapiens (Human), UniProt Q6ZWH5)
# Source text: as §1
# [39] = target: GRK4 (Homo sapiens (Human), UniProt P32298)
# Source text: as §1
# [40] = target: TRKA (Homo sapiens (Human), UniProt P04629)
# Source text: as §1
# [41] = target: ERK2 (Homo sapiens (Human), UniProt P28482)
# Source text: as §1
# PRKG2, sequence (Q13237 whole entry): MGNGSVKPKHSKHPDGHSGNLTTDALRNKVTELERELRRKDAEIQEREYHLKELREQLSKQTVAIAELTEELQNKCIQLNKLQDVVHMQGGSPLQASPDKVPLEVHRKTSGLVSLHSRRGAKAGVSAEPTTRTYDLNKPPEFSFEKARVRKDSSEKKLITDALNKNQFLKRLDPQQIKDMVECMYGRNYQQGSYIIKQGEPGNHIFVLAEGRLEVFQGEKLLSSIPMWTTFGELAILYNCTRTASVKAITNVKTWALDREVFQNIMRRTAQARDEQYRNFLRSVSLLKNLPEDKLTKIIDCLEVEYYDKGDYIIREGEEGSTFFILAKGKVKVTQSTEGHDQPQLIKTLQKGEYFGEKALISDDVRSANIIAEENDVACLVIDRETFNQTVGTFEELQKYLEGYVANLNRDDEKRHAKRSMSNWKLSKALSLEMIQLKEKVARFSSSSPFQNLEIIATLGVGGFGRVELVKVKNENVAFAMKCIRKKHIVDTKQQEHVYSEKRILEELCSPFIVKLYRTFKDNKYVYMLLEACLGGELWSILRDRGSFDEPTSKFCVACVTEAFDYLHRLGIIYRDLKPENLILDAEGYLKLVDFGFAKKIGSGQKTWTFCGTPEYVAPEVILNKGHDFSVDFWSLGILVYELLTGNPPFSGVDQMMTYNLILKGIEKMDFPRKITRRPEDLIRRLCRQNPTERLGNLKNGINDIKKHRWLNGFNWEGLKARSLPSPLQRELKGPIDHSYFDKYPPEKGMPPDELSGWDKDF
# TRKB, sequence (Q16620 32-822): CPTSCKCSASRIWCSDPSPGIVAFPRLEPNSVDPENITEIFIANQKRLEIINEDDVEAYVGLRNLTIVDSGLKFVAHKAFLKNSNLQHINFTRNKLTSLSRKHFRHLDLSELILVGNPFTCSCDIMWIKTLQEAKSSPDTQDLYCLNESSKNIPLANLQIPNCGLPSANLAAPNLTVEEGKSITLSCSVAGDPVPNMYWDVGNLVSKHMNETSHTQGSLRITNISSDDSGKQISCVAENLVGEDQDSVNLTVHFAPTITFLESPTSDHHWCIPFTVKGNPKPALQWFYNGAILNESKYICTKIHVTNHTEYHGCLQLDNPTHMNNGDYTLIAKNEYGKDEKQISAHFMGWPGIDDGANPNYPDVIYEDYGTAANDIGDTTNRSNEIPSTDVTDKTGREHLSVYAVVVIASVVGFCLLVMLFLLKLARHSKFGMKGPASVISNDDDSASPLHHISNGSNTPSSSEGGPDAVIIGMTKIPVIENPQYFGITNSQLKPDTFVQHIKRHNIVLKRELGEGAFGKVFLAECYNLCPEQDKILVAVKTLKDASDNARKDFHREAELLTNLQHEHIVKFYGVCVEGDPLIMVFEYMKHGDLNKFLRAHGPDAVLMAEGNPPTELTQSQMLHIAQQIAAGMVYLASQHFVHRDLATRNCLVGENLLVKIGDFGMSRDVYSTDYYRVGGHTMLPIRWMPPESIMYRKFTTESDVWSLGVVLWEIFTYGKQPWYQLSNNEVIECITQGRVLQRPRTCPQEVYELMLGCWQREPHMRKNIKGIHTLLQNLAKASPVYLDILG
# NDR2, sequence (Q9Y2H1 whole entry): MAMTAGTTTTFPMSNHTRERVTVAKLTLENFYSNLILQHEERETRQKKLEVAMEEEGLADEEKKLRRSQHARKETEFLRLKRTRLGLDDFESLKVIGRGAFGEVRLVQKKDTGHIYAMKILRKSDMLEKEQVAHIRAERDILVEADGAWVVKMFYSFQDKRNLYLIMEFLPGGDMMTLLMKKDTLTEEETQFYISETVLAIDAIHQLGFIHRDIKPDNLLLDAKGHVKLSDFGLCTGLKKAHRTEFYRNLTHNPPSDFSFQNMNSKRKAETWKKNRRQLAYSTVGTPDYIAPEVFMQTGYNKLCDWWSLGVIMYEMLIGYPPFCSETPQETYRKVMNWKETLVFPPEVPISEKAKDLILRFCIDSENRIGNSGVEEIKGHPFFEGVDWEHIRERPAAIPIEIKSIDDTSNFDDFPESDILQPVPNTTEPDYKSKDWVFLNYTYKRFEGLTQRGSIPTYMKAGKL
# FGFR3, sequence (P22607 23-806): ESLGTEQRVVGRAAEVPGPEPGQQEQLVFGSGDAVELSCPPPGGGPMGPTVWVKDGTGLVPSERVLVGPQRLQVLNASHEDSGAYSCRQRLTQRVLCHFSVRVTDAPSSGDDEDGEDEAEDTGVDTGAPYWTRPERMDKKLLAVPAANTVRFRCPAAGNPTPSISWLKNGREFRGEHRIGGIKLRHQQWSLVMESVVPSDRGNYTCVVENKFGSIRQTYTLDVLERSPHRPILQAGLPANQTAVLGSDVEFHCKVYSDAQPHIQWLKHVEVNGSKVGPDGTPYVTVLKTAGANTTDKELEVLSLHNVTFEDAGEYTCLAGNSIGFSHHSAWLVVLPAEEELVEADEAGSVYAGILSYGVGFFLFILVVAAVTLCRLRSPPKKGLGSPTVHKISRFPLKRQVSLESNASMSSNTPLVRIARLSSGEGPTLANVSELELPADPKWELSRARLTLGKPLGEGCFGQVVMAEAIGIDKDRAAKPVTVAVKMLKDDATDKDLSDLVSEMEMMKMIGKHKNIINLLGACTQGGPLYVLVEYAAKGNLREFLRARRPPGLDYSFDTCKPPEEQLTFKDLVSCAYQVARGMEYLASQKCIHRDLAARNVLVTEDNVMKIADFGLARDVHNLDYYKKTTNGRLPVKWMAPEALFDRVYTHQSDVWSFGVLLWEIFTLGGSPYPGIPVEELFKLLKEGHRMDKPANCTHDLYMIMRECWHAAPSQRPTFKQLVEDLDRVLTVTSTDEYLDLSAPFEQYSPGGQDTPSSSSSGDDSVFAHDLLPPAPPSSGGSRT
# AURKC, sequence (Q9UQB9 whole entry): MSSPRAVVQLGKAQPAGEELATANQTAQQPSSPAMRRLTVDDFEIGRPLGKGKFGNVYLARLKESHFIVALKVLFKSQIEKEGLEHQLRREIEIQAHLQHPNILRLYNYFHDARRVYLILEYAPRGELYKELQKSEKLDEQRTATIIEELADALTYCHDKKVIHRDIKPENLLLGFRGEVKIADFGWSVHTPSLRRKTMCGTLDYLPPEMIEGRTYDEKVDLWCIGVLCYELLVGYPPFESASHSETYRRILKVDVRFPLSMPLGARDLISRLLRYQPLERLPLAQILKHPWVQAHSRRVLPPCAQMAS
# SGK2, sequence (Q9HBY8 whole entry): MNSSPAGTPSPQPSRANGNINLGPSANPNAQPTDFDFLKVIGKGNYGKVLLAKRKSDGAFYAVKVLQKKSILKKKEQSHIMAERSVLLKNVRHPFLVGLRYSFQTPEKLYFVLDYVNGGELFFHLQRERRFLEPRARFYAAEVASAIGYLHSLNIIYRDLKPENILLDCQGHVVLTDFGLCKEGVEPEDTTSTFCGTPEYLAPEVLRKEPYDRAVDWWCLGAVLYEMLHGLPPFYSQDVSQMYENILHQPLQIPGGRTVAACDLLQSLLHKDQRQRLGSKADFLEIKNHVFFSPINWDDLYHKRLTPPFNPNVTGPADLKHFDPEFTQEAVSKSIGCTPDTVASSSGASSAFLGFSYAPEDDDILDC
# PRKCQ, sequence (Q04759 whole entry): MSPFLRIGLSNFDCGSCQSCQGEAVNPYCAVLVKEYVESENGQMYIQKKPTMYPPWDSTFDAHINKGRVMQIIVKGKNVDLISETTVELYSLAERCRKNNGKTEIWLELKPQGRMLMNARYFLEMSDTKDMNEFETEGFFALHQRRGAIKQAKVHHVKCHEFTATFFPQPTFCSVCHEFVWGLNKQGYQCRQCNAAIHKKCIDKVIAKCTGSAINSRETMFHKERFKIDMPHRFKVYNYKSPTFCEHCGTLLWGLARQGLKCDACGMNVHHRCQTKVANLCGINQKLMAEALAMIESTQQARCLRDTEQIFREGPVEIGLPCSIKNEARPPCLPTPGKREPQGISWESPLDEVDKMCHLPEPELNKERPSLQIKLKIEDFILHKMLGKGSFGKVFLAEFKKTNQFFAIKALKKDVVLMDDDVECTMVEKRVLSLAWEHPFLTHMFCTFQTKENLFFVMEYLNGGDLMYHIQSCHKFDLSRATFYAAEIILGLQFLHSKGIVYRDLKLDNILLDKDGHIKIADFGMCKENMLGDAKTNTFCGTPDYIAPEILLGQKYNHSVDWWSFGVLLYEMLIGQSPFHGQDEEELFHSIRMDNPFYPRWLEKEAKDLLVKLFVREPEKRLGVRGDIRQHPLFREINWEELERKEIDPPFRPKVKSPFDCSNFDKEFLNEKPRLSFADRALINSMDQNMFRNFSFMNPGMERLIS
# LIMK2, sequence (P53671 whole entry): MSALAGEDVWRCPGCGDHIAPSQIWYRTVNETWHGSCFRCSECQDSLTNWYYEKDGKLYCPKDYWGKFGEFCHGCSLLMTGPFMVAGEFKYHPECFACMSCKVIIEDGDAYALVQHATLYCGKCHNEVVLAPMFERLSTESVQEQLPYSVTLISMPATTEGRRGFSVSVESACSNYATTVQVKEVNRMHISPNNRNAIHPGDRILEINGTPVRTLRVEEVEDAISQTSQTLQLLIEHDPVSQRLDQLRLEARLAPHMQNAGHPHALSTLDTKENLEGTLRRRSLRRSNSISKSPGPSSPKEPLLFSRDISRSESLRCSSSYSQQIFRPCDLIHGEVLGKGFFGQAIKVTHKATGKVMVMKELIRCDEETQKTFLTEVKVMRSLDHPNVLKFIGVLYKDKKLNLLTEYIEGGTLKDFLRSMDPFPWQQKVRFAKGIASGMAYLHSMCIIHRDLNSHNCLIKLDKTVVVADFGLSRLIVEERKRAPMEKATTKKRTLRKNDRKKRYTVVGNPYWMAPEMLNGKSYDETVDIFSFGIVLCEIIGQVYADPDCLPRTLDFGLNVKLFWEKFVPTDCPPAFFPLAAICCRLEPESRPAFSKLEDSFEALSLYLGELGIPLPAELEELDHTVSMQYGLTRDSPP
structure (smiles),measurement,setting,value
CCN1CCN(Cc2ccc(Nc3nc4ccc(Oc5ccnc(NC(C)=O)c5)cc4n3C)cc2C(F)(F)F)CC1 [Compound I-2],remaining binding at 1 µM,[1],62%
same,remaining binding at 1 µM,[2],91%
same,remaining binding at 1 µM,[3],91%
same,remaining binding at 1 µM,[4],100%
same,remaining binding at 1 µM,[5],96%
same,remaining binding at 1 µM,[6],100%
same,remaining binding at 1 µM,[7],65%
same,remaining binding at 1 µM,[8],91%
same,remaining binding at 1 µM,[9],25%
same,remaining binding at 1 µM,[10],89%
same,remaining binding at 1 µM,[11],39%
same,remaining binding at 1 µM,[12],99%
same,remaining binding at 1 µM,[13],100%
same,remaining binding at 1 µM,[14],100%
same,remaining binding at 1 µM,[15],19%
same,remaining binding at 1 µM,[16],75%
same,remaining binding at 1 µM,[17],36%
same,remaining binding at 1 µM,[18],100%
same,remaining binding at 1 µM,[19],87%
same,remaining binding at 1 µM,[20],85%
same,remaining binding at 1 µM,[21],71%
same,remaining binding at 1 µM,[22],92%
same,remaining binding at 1 µM,[23],67%
same,remaining binding at 1 µM,[24],0%
same,remaining binding at 1 µM,[25],76%
same,remaining binding at 1 µM,[26],83%
same,remaining binding at 1 µM,[27],100%
same,remaining binding at 1 µM,[28],70%
same,remaining binding at 1 µM,[29],100%
same,remaining binding at 1 µM,[30],100%
same,remaining binding at 1 µM,[31],100%
same,remaining binding at 1 µM,[32],46%
same,remaining binding at 1 µM,[33],97%
same,remaining binding at 1 µM,[34],81%
same,remaining binding at 1 µM,[35],1.5%
same,remaining binding at 1 µM,[36],71%
same,remaining binding at 1 µM,[37],57%
same,remaining binding at 1 µM,[38],100%
same,remaining binding at 1 µM,[39],99%
same,remaining binding at 1 µM,[40],31%
same,remaining binding at 1 µM,[41],95%
"CCN1CCN(Cc2ccc(Nc3nc4ccc(Oc5ccnc(NC(C)=O)c5)c(C)c4n3C)cc2C(F)(F)F)CC1 [Compound I-6, N-(4-(2-(4-((4-ethylpiperazin-1-yl)methyl)-3-(trifluoromethyl)phenylamino)-1,7-dimethyl-1H-benzo[d]imidazol-6-yloxy)pyridin-2-yl)acetamide]",remaining binding at 1 µM,[1],97%
same,remaining binding at 1 µM,[2],91%
same,remaining binding at 1 µM,[3],97%
same,remaining binding at 1 µM,[4],51%
same,remaining binding at 1 µM,[5],83%
same,remaining binding at 1 µM,[6],89%
same,remaining binding at 1 µM,[7],57%
same,remaining binding at 1 µM,[8],100%
same,remaining binding at 1 µM,[9],5.6%
same,remaining binding at 1 µM,[10],85%
same,remaining binding at 1 µM,[11],64%
same,remaining binding at 1 µM,[12],95%
same,remaining binding at 1 µM,[13],88%
same,remaining binding at 1 µM,[14],100%
same,remaining binding at 1 µM,[15],70%
same,remaining binding at 1 µM,[16],96%
same,remaining binding at 1 µM,[17],1.4%
same,remaining binding at 1 µM,[18],100%
same,remaining binding at 1 µM,[19],93%
same,remaining binding at 1 µM,[20],92%
same,remaining binding at 1 µM,[21],50%
same,remaining binding at 1 µM,[22],93%
same,remaining binding at 1 µM,[23],97%
same,remaining binding at 1 µM,[24],0.05%
same,remaining binding at 1 µM,[25],82%
same,remaining binding at 1 µM,[26],93%
same,remaining binding at 1 µM,[27],96%
same,remaining binding at 1 µM,[28],56%
same,remaining binding at 1 µM,[29],89%
same,remaining binding at 1 µM,[30],93%
same,remaining binding at 1 µM,[31],99%
same,remaining binding at 1 µM,[32],32%
same,remaining binding at 1 µM,[33],97%
same,remaining binding at 1 µM,[34],58%
same,remaining binding at 1 µM,[35],1.6%
same,remaining binding at 1 µM,[36],74%
same,remaining binding at 1 µM,[37],87%
same,remaining binding at 1 µM,[38],79%
same,remaining binding at 1 µM,[39],81%
same,remaining binding at 1 µM,[40],3.5%
same,remaining binding at 1 µM,[41],100%
